Data: PubChem BioAssay (NCI)
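Compound exposure: 48 hours, 5 concentrations, 96-well plates. Here, GI50 denotes the concentration required for 50% inhibition of growth. TGI denotes the concentration required for complete inhibition of growth.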 Where a SMILES comes first, the peptide text is derived from it. Bridges are numbered along the chain shown (N, C = ends). Roman numbers before positions name the chains, in order. [ ]: non-standard residue; d: D form. The star is where a group is joined. Quinoxaline2carbonyl = O=C(c1cnc2ccccc2n1)*; NMeV = CN[CH](C(=O)O)C(C)C; NMeC = CN[CH](CS)C(=O)O

Assays:
Experiment in all cases: growth of human tumour cells (NCI), 48 h
NCI-H522 lung = system: NCI-H522 lung
UACC-62 melanoma = system: UACC-62 melanoma
HOP-92 NSCLC = system: HOP-92 NSCLC
SNB-75 CNS = system: SNB-75 CNS
HL-60(TB) leukemia = system: HL-60(TB) leukemia
SK-MEL-2 melanoma = system: SK-MEL-2 melanoma
EKVX NSCLC = system: EKVX NSCLC
SN12C renal = system: SN12C renal
SF-539 CNS = system: SF-539 CNS
COLO 205 colon = system: COLO 205 colon

| Compound | TGI (NCI-H522 lung) [µM] | TGI (UACC-62 melanoma) [µM] | TGI (HOP-92 NSCLC) [µM] | TGI (SNB-75 CNS) [µM] | TGI (HL-60(TB) leukemia) [µM] | TGI (SK-MEL-2 melanoma) [µM] | GI50 (NCI-H522 lung) [µM] | GI50 (UACC-62 melanoma) [µM] | GI50 (HOP-92 NSCLC) [µM] | GI50 (SNB-75 CNS) [µM] | GI50 (EKVX NSCLC) [µM] | TGI (EKVX NSCLC) [µM] | GI50 (SN12C renal) [µM] | TGI (SN12C renal) [µM] | GI50 (SF-539 CNS) [µM] | TGI (SF-539 CNS) [µM] | GI50 (COLO 205 colon) [µM] | TGI (COLO 205 colon) [µM] | GI50 (SK-MEL-2 melanoma) [µM] | GI50 (HL-60(TB) leukemia) [µM] |
| --- | --- | --- | --- | --- | --- | --- | --- | --- | --- | --- | --- | --- | --- | --- | --- | --- | --- | --- | --- | --- |
| CC1NC(=O)C(NC(=O)c2cnc3ccccc3n2)COC(=O)C(C(C)C)N(C)C(=O)C2CSSCC(C(=O)N(C)C(C(C)C)C(=O)OCC(NC(=O)c3cnc4ccccc4n3)C(=O)NC(C)C(=O)N2C)N(C)C1=O (stereo not given) (I: Quinoxaline2carbonyl-SA[NMeC][NMeV] / II: Quinoxaline2carbonyl-SA[NMeC][NMeV]; ester I:1-II:C, I:C-II:1; disulfide I:3-II:3; configuration not given here) | < 0.01 | < 0.01 | > 35.7 | < 0.01 | < 0.01 | < 0.01 |  |  |  |  |  |  |  |  |  |  |  |  |  |  |
| Nc1ccc(-c2nc3ccccc3[nH]2)c2ccccc12 | 17.1 | > 27.6 | 9.61 | 4.39 |  | > 100 | 3.14 | 7.51 | 1.57 | 0.809 | 14.5 | > 100 | 10.1 | 59.7 | 3.11 | 17 | 3.41 | 24.6 | 14.2 |  |
| N/N=C1\CC(=O)NC(=O)N1 | > 100 | > 100 | > 100 | > 100 | > 100 | > 100 |  |  |  |  |  | > 100 |  | > 100 |  |  |  | > 100 |  |  |
| O=C(Oc1cccnc1)c1ccsc1Nc1ccnc(C(F)(F)F)c1 | 8.36 | > 100 | 46.5 | > 100 |  | > 100 | 2.36 | 44.8 | 3.14 | 25.2 | 34.2 | > 100 | 4.44 | > 100 |  |  | 4.89 | 24.6 | 4.19 |  |
| O=C([CH-]C(=O)c1ccccc1)c1ccccc1.O=C([CH-]C(=O)c1ccccc1)c1ccccc1.[OH-].[OH-].[Ti+4] | 69.7 | > 100 |  | > 100 | > 100 | > 100 | 24.2 | 66.5 |  | 49.1 | 94.9 | > 100 | > 100 | > 100 | 29.7 | > 100 | > 100 | > 100 | 76.5 | > 100 |
| COCCOCOc1ccc(OCOCCOC)c2c1C(=O)c1ccccc1C2=O |  | > 100 | > 100 | > 100 | > 100 | > 100 |  |  |  |  |  | > 100 |  | > 100 |  | > 100 |  | > 100 |  |  |
| Cc1ccc(C2=Nc3ccccc3SC(c3cccc([N+](=O)[O-])c3)C2)cc1 (stereo not given) | 64.6 | > 100 | 81.3 | 38.6 |  | > 100 |  |  |  |  |  | > 100 |  | > 100 |  | 19 |  | > 100 |  |  |
| COc1ccc(C2[C@@H](Cl)C(=O)N2c2cc(OC)c(OC)c(OC)c2)cc1Cl (stereo not given in full) | 0.296 | 29 | 85.9 | 71.2 | 0.463 | 22.5 | 0.0353 | 0.0463 | 2.29 | 0.0734 | 0.434 | > 100 | 0.414 | > 100 |  |  | 0.203 | 0.512 | 0.177 | 0.175 |
| N#Cc1ccc(N=Cc2c([O-])ccc3ccccc23)cc1.[C-]#[O+].[C-]#[O+].[Ir] | 2.45 | 24.6 | 10.3 | 24.9 | 5.18 |  | 1.13 | 12.2 | 3.23 | 11 | 11.5 | 25 | 13.2 | 27.5 | 15.2 | 29.2 | 1.96 | 4 |  | 1.5 |
| CN(C)CCC(/C=C/c1ccccc1)=N\Nc1ccc(Cl)cc1Cl | 30.6 | 21.4 |  | 18.8 | 16.7 | 26.7 |  |  |  |  |  | 31.1 |  | 23.2 |  | 29 |  | 28.1 |  |  |
| COc1cc(-c2cc(-c3cc([N+](=O)[O-])c(/C=N/NC(=O)c4ccncc4)o3)ccc2OC)ccc1C | > 100 | > 100 | > 100 | > 100 |  | > 100 |  |  |  |  |  | > 100 |  | > 100 |  | > 100 |  | > 100 |  |  |
| Cc1cc2c(c(C(=O)O)c1C)-c1cccc(F)c1C2=O | > 100 | > 100 |  | > 100 |  | > 100 |  |  |  |  |  | > 100 |  | > 100 |  |  |  | > 100 |  |  |
| COc1ccc2c(c1OC)C(=O)OC2C1c2c(c([N+](=O)[O-])c3c(c2OC)OCO3)CCN1C (stereo not given) | > 100 | > 100 |  | > 100 |  | > 100 | > 100 | > 100 |  | > 100 | > 100 | > 100 | > 100 | > 100 | > 100 | > 100 | 66.6 | > 100 | > 100 |  |
| Cc1cccc(NC(=O)c2sc3nc4c(cc3c2N)CN(Cc2ccccc2)CC4)c1C | > 50 | > 50 | 47.3 | 0.419 |  | 25.8 | 0.138 | 0.274 | 0.736 | 0.112 | 0.45 | > 50 | 0.313 | > 50 | 0.165 | 28.2 | 0.274 | > 50 | 0.328 |  |
| C/C=C(\C)c1cc(O)c(C)c2c1Oc1cc(O)c(Cl)c(C)c1C(=O)O2 | 51.3 |  |  | 53.3 | 67.3 | 41.8 |  |  |  |  |  | 61.2 |  | 30.9 |  | 48.2 |  | 49.3 |  |  |
| O=P1(Oc2ccccc2)C(c2ccccc2)C(c2ccccc2)=NN1c1ccccc1 (stereo not given) | 36.4 | 35.3 |  | > 100 | 47 | 31.6 |  |  |  |  |  | > 100 |  | 94.3 |  | 35.9 |  | 36.4 |  |  |
| Cc1ccc(S(=O)OC2C3CC4CC(C3)CC2C4)cc1 (stereo not given) | > 100 | > 100 | > 100 | > 100 | > 100 |  |  |  |  |  |  | > 100 |  | > 100 |  | > 100 |  | > 100 |  |  |
| CCC1(O)C(=O)OCc2c1cc1n(c2=O)Cc2cc3cc(N)ccc3nc2-1 (stereo not given) | 0.27 | 0.251 |  | 0.0375 | 0.0145 | 0.826 |  |  |  |  |  | > 28.9 |  | 0.697 |  | < 0.01 |  | 7.25 |  |  |
